# Results reported in paper PMC12102759 (Protein Science : A Publication of the Protein Society, 2025).
# Tested on: G3BP1 NFT2
# Type: binding, human
# Conditions: library DMS-CoV; bait G3BP1 NFT2; prey N; peptide APRITFGGPSDSTGSN; listed as aa = residue placed at this position; column sums to 1
Sequence,"DMS PSSM value, I (position 4)","DMS PSSM value, A (position 1)","DMS PSSM value, P (position 9)","DMS PSSM value, P (position 2)"
APRITFGGPSDSTGSN I4G (APRGTFGGPSDSTGSN),0,,,
APRITFGGPSDSTGSN I4V (APRVTFGGPSDSTGSN),0.03242,,,
APRITFGGPSDSTGSN A1R (RPRITFGGPSDSTGSN),,0,,
APRITFGGPSDSTGSN A1H (HPRITFGGPSDSTGSN),,0.001405,,
APRITFGGPSDSTGSN P9N (APRITFGGNSDSTGSN),,,0,
APRITFGGPSDSTGSN A1P (PPRITFGGPSDSTGSN),,0.006009,,
APRITFGGPSDSTGSN P2Q (AQRITFGGPSDSTGSN),,,,0.0005858
APRITFGGPSDSTGSN P9V (APRITFGGVSDSTGSN),,,0.001999,

# Same assay, conditions: library DMS-CoV; bait G3BP1 NFT2; prey N; peptide RNAPRITFGGPSDSTG; listed as aa = residue placed at this position; column sums to 1
Sequence,"DMS PSSM value, P (position 4)","DMS PSSM value, I (position 6)","DMS PSSM value, D (position 13)","DMS PSSM value, G (position 10)","DMS PSSM value, S (position 14)","DMS PSSM value, P (position 11)","DMS PSSM value, S (position 12)","DMS PSSM value, R (position 5)","DMS PSSM value, T (position 7)","DMS PSSM value, N (position 2)"
RNAPRITFGGPSDSTG P4I (RNAIRITFGGPSDSTG),0,,,,,,,,,
RNAPRITFGGPSDSTG I6M (RNAPRMTFGGPSDSTG),,0,,,,,,,,
RNAPRITFGGPSDSTG I6T (RNAPRTTFGGPSDSTG),,0,,,,,,,,
RNAPRITFGGPSDSTG D13E (RNAPRITFGGPSESTG),,,0,,,,,,,
RNAPRITFGGPSDSTG P4M (RNAMRITFGGPSDSTG),0,,,,,,,,,
RNAPRITFGGPSDSTG I6F (RNAPRFTFGGPSDSTG),,0,,,,,,,,
RNAPRITFGGPSDSTG G10H (RNAPRITFGHPSDSTG),,,,0,,,,,,
RNAPRITFGGPSDSTG S14V (RNAPRITFGGPSDVTG),,,,,0,,,,,
RNAPRITFGGPSDSTG P11S (RNAPRITFGGSSDSTG),,,,,,0,,,,
RNAPRITFGGPSDSTG S12L (RNAPRITFGGPLDSTG),,,,,,,0,,,
RNAPRITFGGPSDSTG R5D (RNAPDITFGGPSDSTG),,,,,,,,0.0001605,,
RNAPRITFGGPSDSTG R5Y (RNAPYITFGGPSDSTG),,,,,,,,0.03289,,
RNAPRITFGGPSDSTG I6P (RNAPRPTFGGPSDSTG),,0,,,,,,,,
RNAPRITFGGPSDSTG S14A (RNAPRITFGGPSDATG),,,,,0,,,,,
RNAPRITFGGPSDSTG T7A (RNAPRIAFGGPSDSTG),,,,,,,,,0,
RNAPRITFGGPSDSTG P11A (RNAPRITFGGASDSTG),,,,,,0,,,,

Sequence,"DMS PSSM value, P (position 4)","DMS PSSM value, I (position 6)","DMS PSSM value, D (position 13)","DMS PSSM value, G (position 10)","DMS PSSM value, S (position 14)","DMS PSSM value, P (position 11)","DMS PSSM value, S (position 12)","DMS PSSM value, R (position 5)","DMS PSSM value, T (position 7)","DMS PSSM value, N (position 2)"
RNAPRITFGGPSDSTG R5M (RNAPMITFGGPSDSTG),,,,,,,,0.2004,,
RNAPRITFGGPSDSTG G10T (RNAPRITFGTPSDSTG),,,,0,,,,,,
RNAPRITFGGPSDSTG P11H (RNAPRITFGGHSDSTG),,,,,,0,,,,
RNAPRITFGGPSDSTG P4H (RNAHRITFGGPSDSTG),0,,,,,,,,,
RNAPRITFGGPSDSTG N2P (RPAPRITFGGPSDSTG),,,,,,,,,,0
RNAPRITFGGPSDSTG P11G (RNAPRITFGGGSDSTG),,,,,,0,,,,
RNAPRITFGGPSDSTG R5P (RNAPPITFGGPSDSTG),,,,,,,,0.5972,,
RNAPRITFGGPSDSTG D13T (RNAPRITFGGPSTSTG),,,0,,,,,,,
RNAPRITFGGPSDSTG T7I (RNAPRIIFGGPSDSTG),,,,,,,,,0,
RNAPRITFGGPSDSTG T7S (RNAPRISFGGPSDSTG),,,,,,,,,0,
RNAPRITFGGPSDSTG I6Y (RNAPRYTFGGPSDSTG),,0,,,,,,,,
RNAPRITFGGPSDSTG P4L (RNALRITFGGPSDSTG),0,,,,,,,,,
RNAPRITFGGPSDSTG S14W (RNAPRITFGGPSDWTG),,,,,0,,,,,
RNAPRITFGGPSDSTG D13H (RNAPRITFGGPSHSTG),,,0,,,,,,,
RNAPRITFGGPSDSTG G10R (RNAPRITFGRPSDSTG),,,,0,,,,,,
RNAPRITFGGPSDSTG T7H (RNAPRIHFGGPSDSTG),,,,,,,,,0,

# Same assay, conditions: library DMS-CoV; bait G3BP1 NFT2; prey N; peptide RNAPRITFGGPSDSTG; listed as aa = residue placed at this position; column sums to 1
Sequence,"DMS PSSM value, F (position 8)","DMS PSSM value, G (position 16)","DMS PSSM value, A (position 3)","DMS PSSM value, T (position 15)","DMS PSSM value, G (position 9)"
RNAPRITFGGPSDSTG F8H (RNAPRITHGGPSDSTG),0,,,,
RNAPRITFGGPSDSTG F8L (RNAPRITLGGPSDSTG),0,,,,
RNAPRITFGGPSDSTG G16P (RNAPRITFGGPSDSTP),,0,,,
RNAPRITFGGPSDSTG F8Y (RNAPRITYGGPSDSTG),0,,,,
RNAPRITFGGPSDSTG A3Y (RNYPRITFGGPSDSTG),,,0,,
RNAPRITFGGPSDSTG T15Y (RNAPRITFGGPSDSYG),,,,0,
RNAPRITFGGPSDSTG T15F (RNAPRITFGGPSDSFG),,,,0,
RNAPRITFGGPSDSTG A3W (RNWPRITFGGPSDSTG),,,0,,
RNAPRITFGGPSDSTG G9L (RNAPRITFLGPSDSTG),,,,,0
